According to patent US20090061022A1, “Pharmaceutical composition comprising arsenite for the treatment of malignancy” (priority 2004, published 2009):
Several values for one entry are separate records, joined by “and”; a condition that tells them apart may be missing. Identical values can stand only once.

Legend:
[1] = Subacute toxicity study, daily oral gavages for 14 days in the mouse, 28-day recovery; assay type: in vivo, CD-1 male mice; settings: for Hematology: day 5 and end of treatment
Method: The nature and purpose of this subacute oral toxicity study was to determine the extent to which cumulative toxicity occurred with repeated administration of sodium meta-arsenite for 14 days to mice. Moreover, the study was intended to define the most likely target organs for toxicity and to investigate the reversibility of toxicity.
Ampoules of sodium meta-arsenite (dissolved in 10% (w/v) glucose in water) in concentrations of 0, 1.6 and 3.2 mg/ml were stored in a refrigerator in the dark. Based on the previous study, the following doses were selected: 0, 16 (½ MTD) and 32 mg/kg/day (MTD). Each dose was administered daily by oral gavages to groups of 20 CD-1 male mice for 14 days, followed by a 28-day recovery period.
Ten animals of each group were killed on day 15 (main groups). The remaining animals (recovery groups) were killed on day 43 after a recovery period of 28 days. Blood samples were collected from all main group animals on day 5 to determine effects on the hematology. Blood samples were also collected at the end of the treatment period (day 15, all main group animals) and after recovery (day 43, all recovery group animals) for hematology and clinical biochemistry.
Clinical signs were evaluated daily and body weights were recorded twice weekly. Macroscopic examination was performed at termination. Organ weight measurements were performed at scheduled termination, i.e. day 15 (main groups) and day 43 (recovery groups). Microscopic examination was performed on a selection of tissues of both main and recovery animals.

[2] = tested on: panel of 12 human cancer cell lines; assay: Cytotoxic activity, whole panel of 12 human cancer cell lines, modified propidium iodide assay; settings: for times more potent than arsenic acid sodium salt: panel of 12
Method: Nine kinds of human cancer cell lines out of six kinds of cancers were grown at 37° C. under a controlled atmosphere of 95% air and 5% CO2. The cells were grown on monolayer cultures of RPMI 1640 cell culture medium supplemented with 10% fetal calf serum.
The grown cells were harvested from exponential phase cultures by trypsinization and counted. The counted cells were placed in a plate, which has ninety six wells. Each well on the plate is in a shape of a flat-bottomed microtitre. Density of the cells in a suspension was adjusted depending on the cell line. The suspension was prepared by diluting the grown cells with the culture medium (RPMI 1640). Concentration of the cells were varied from 5×10^4 to 1×10^5 viable cells/ml. 100 μl of the suspension was placed in each well of the plate. […] Then add 50 μl of culture medium (RPMI 1640) only to 6 wells, 50 μl/well, among the 96 wells of one plate. It is called controlled. One well is filled with culture medium plus 5-FU. And another 50 μl of culture medium plus one of the stock solutions were added to each of the left 89 wells to allow cells to resume exponential growth.
In a further study, the cytotoxic activity profile of sodium meta-arsenite and arsenic acid sodium salt was investigated in different panels containing twelve (12) human cancer cell lines from eight (8) kinds of human cancers. The cancer cell samples were prepared as described in 1-1-B. Propidium iodide fluorescence assay method for this test was modified as the follows.

RXF 944LX = assay: Anticancer activity in RXF 944LX cancer bearing nude mice, intermittent and daily schedules; settings: for MTD: i.p., RXF 944LX
Method: Cancer fragments (1-2 mm in diameter), obtained from xenografts in serial passage in nude mice, were implanted subcutaneously (S.C.) in a flank of male NRMI nude mice (one fragment per mouse). Mice with appropriate cancer volumes (5-7 mm in diameter) were randomly distributed to treatment and control groups (4 mice/group). The start of treatment was day 0. Cancer volume and body weights were measured at least twice per week.
The cancer volume of each animal was determined by two-dimensional measurement using calipers. The volume was calculated according to the formula: (a×b^2)×0.5; wherein a and b represent two perpendicular diameters in which a (length) is the larger diameter and b (width) the smaller diameter.
Relative cancer volumes (RCV) were calculated for each individual cancer by dividing the cancer volume on day X by the cancer volume on day 0 multiplied by 100%. The cancer volume of a treatment group was expressed as the median RCV of all mice of the group. Median RCV values were used for drawing growth curves and treatment evaluation. Optimal cancer growth inhibition at a particular day within the treatment period was calculated from the median RCV values of the treated (T) versus the controlled (C) group multiplied by 100%. A T/C value<50% was considered as anti-cancer activity.
In the experiment with renal cancer RXF 944LX, the anticancer activity of the compounds was explored using two administration schedules; 1) intermittent schedule of 4 days×3, and 2) a daily schedule for 2 weeks (days 0-4, 7-11).
The dose levels chosen for sodium meta-arsenite and arsenic acid sodium salt in these schedules were based on the experience in the 1st experiment. Additional small dose finding studies were executed.

[3] = panel of 12 human cancer cell lines, 4 days
[4] = 8 mg/kg i.p., days 0-4, 7, 14-18

O=[As][O-].[Na+] [Sodium meta-arsenite, sodium meta-arsenite]
Clinical signs ([1]; 16 mg/kg/day oral 14 days, mouse): swelling of the abdomen and piloerection | Hematology ([1]; 16 mg/kg/day): lower erythrocyte count, hemoglobin and haematocrit | Microscopic examination ([1]; 16 mg/kg/day, end of treatment): atrophy of the lymphoid organs (Peyer's patches, thymus), ulceration and hyperplasia of the fore stomach epithelium, necrosis of liver and gall bladder and myeloid hyperplasia and congestion of the sternal bone marrow | Necropsy findings ([1]; 16 mg/kg/day, end of treatment): crateriform retractions of the fore stomach | Clinical signs ([1]; 32 mg/kg/day oral 14 days, mouse): swelling of the abdomen and piloerection | Premature mortality during the treatment phase, males ([1]; 32 mg/kg/day oral 14 days, groups of 20 male mice): 7 | Necropsy findings ([1]; 32 mg/kg/day, after treatment): crateriform retractions of the forestomach and a reduced thymus size | Hematology ([1]; 32 mg/kg/day): Lower leucocyte count, platelet count, affected erythrocyte parameters (lower erythrocyte count, hemoglobin and haematocrit) and low reticulocyte counts | Clinical biochemistry ([1]; 32 mg/kg/day, end of treatment): Decreased glucose, total protein and albumin concentrations and increased sodium, calcium and inorganic phosphorus concentrations | Microscopic examination ([1]; 32 mg/kg/day, end of treatment): atrophy of the lymphoid organs (mesenteric and mandibular lymph nodes, Peyer's patches, spleen and thymus), ulceration and hyperplasia of the fore stomach epithelium, ulceration of the caecum, necrosis of the liver and gall bladder | Organ weights ([1]; 32 mg/kg/day, end of treatment): Decreased absolute and relative spleen and thymus weight and increased relative liver weight | Main target organs for toxicity ([1]; 16 and 32 mg/kg/day oral 14 days, mouse): bone marrow, lymphoid organs and the forestomach | human cancer cell lines in which active, percent of 12 ([2]; 1 μg/ml): 33% | human cancer cell lines in which active, percent of 12 ([2]; dose level 10 μg/ml): 100% | human cancer cell lines in which active, percent of 12 ([2]; dose level 100): 100% | cytotoxic activity in panel of 12 ([2]; dose level lower than 1 μg/ml): did not display any cytotoxic activity at all | times more potent than arsenic acid sodium salt ([2]; in μg/ml): over 20 times | times more potent than arsenic acid sodium salt ([2]; on a molar basis): approximately 10 times | Mean IC50 [2, 3]: 0.9 µg/mL | Mean IC70 [2, 3]: 2.0 μg/ml and 15 μM | Mean IC90 [2, 3]: 6.8 µg/mL | IC50 ([2]; read-out: Mean IC50, panel of 12 human cancer cell lines, 4 days): 7 µM | IC90 ([2]; read-out: Mean IC90, panel of 12 human cancer cell lines, 4 days): 52 µM | BW loss % (day) (RXF 944LX; 4 mg/kg i.p., days 0-4, 7-11): −3 (7) % | Drug-related deaths (RXF 944LX; 4 mg/kg i.p., days 0-4, 7-11): 2/6 | SGD (specific growth delay) (RXF 944LX; 4 mg/kg i.p., days 0-4, 7-11): 0.1 | T/C % (RXF 944LX; 4 mg/kg i.p., days 0-4, 7-11): 55% | BW loss % (day) (RXF 944LX; 5 mg/kg i.p., days 0, 4, 8): −2 (3) % | Drug-related deaths (RXF 944LX; 5 mg/kg i.p., days 0, 4, 8): 0/6 | SGD (specific growth delay) (RXF 944LX; 5 mg/kg i.p., days 0, 4, 8): −0.5 | T/C % (RXF 944LX; 5 mg/kg i.p., days 0, 4, 8): 84% | BW loss % (day) (RXF 944LX; [4]): −14 (10) % | Drug-related deaths (RXF 944LX; [4]): 3/6 | Drug-related deaths (RXF 944LX; 10 mg/kg i.p., days 0, 4, 8): 5/6 | MTD (RXF 944LX; daily schedule (days 0-4, 7-11)): 4 mg/kg/day | MTD (RXF 944LX; intermittent schedule (4 days×3)): 5 mg/kg/day
